Earlier results in patent US20140072530A1, “TREATMENT OF HIV” (priority 2006, published 2014).

Experiments:
[1] = system: whole blood samples stimulated with LPS; details: LPS-stimulated whole blood of HIV patients; concentration-dependent
[2] = system: normal peripheral blood mononuclear cells (PBMC); details: induced by HIV envelope glycoprotein gp 120, normal PBMC

Substance | production of IL-1 [1] | production of TNF-α [1] | production of IL-1β [2] | production of TNF-α [2]
α-melanocyte-stimulating hormone [α-MSH (1-13), α-melanocyte-stimulating hormone [α-MSH (1-13)]] | reduced | reduced | inhibit | inhibit
adrenocorticotropic hormone [ACTH (1-39] (SYSMEHFRWGKPVGKKRRPVKVYPNGAEDESAEAFPLEF; Corticotropin; UniProt P01189 138-176, looked up) [ACTH (1-39), Proopiomelanocortin-derived melanocortin peptide] | reduced | reduced | – | –
ACTH (1-24): Melanocortin peptide, fragment 1-24 of adrenocorticotropic hormone (SYSMEHFRWGKPVGKKRRPVKVYP; Corticotropin; UniProt P01189 138-161, looked up, fragment) | reduced | reduced | – | –
